Reference: PubChem BioAssay AID192 (DTP/NCI, 2004)
“And” between values parts separate entries of the source, which are not always exact repeats. Equal values may be shown once. Inconclusive results and toxic doses are left out.

Tested on: BDF1 mice, B16 melanoma ip, median survival T/C
Assay: NCI In Vivo Anticancer Drug Screen. Data for tumor model B16 Melanoma (intraperitoneal) in B6D2F1 (BDF1) mice
Settings: endpoint: median survival time, higher = longer survival
Outline: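 Tumor-bearing mice received test compound or vehicle. Survival or tumor size was then measured in both groups. The treated-group figure was divided by the control-group figure.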

[1] = dose: 1.56 mg/kg/injection, schedule: Q01DX009 (ip), vehicle: saline
[2] = dose: 3.13 mg/kg/injection, schedule: Q01DX009 (ip), vehicle: saline
[3] = dose: 6.25 mg/kg/injection, schedule: Q01DX009 (ip), vehicle: saline
[4] = dose: 0.25 mg/kg/injection, schedule: Q01DX009 (ip), vehicle: saline
[5] = dose: 0.5 mg/kg/injection, schedule: Q01DX009 (ip), vehicle: saline
[6] = dose: 12.5 mg/kg/injection, schedule: Q01DX009 (ip), vehicle: Klucel (hydroxypropylcellulose) (HPC)
[7] = dose: 25.0 mg/kg/injection, schedule: Q01DX009 (ip), vehicle: Klucel (hydroxypropylcellulose) (HPC)
[8] = dose: 6.25 mg/kg/injection, schedule: Q01DX009 (ip), vehicle: Klucel (hydroxypropylcellulose) (HPC)
[9] = dose: 50.0 mg/kg/injection, schedule: Q01DX009 (ip), vehicle: Klucel (hydroxypropylcellulose) (HPC)
[10] = dose: 100.0 mg/kg/injection, schedule: Q01DX009 (ip), vehicle: Klucel (hydroxypropylcellulose) (HPC)
[11] = dose: 200.0 mg/kg/injection, schedule: Q01DX009 (ip), vehicle: Klucel (hydroxypropylcellulose) (HPC)
[12] = dose: 400.0 mg/kg/injection, schedule: Q01DX009 (ip), vehicle: Klucel (hydroxypropylcellulose) (HPC)

ClC1CCC[N-]C1.ClC1CCC[N-]C1.[Cl][Pt+2][Cl] (stereo not drawn)
T/C (dose: 0.78 mg/kg/injection, schedule: Q01DX009 (ip), vehicle: saline): 100 % of control
T/C [1]: 95 % of control
T/C [2]: 96 % of control
T/C [3]: 100 % of control
T/C (dose: 12.5 mg/kg/injection, schedule: Q01DX009 (ip), vehicle: saline): 95 % of control

COc1ccc2c3c(c4cc(OC)c(OC)cc4c2c1)C[C@H]1CCCCN1C3
T/C (dose: 0.13 mg/kg/injection, schedule: Q01DX009 (ip), vehicle: saline): 114 % of control
T/C [4]: 109 % of control
T/C [5]: 104 % of control

CCN(CC)CCNc1ccc(CO)c2sc3ccccc3c(=O)c12
T/C [4]: 100 % of control
T/C [5]: 94 % of control
T/C (dose: 1.0 mg/kg/injection, schedule: Q01DX009 (ip), vehicle: saline): 89 % of control
T/C (dose: 2.0 mg/kg/injection, schedule: Q01DX009 (ip), vehicle: saline): 100 % of control
T/C (dose: 2.4 mg/kg/injection, schedule: Q01DX009 (ip), vehicle: saline with Tween-80): 89 % of control
T/C (dose: 4.8 mg/kg/injection, schedule: Q01DX009 (ip), vehicle: saline with Tween-80): 97 % of control
T/C (dose: 9.5 mg/kg/injection, schedule: Q01DX009 (ip), vehicle: saline with Tween-80): 105 % of control
T/C (dose: 19.0 mg/kg/injection, schedule: Q01DX009 (ip), vehicle: saline with Tween-80): 97 % of control
T/C (dose: 38.0 mg/kg/injection, schedule: Q01DX009 (ip), vehicle: saline with Tween-80): 110 % of control

C=C1C(=O)OC2C1CCC(=C)C1CC(O)C(=C)C12 (stereo not drawn)
T/C (dose: 67.0 mg/kg/injection, schedule: Q01DX009 (ip), vehicle: saline with Tween-80): 87 % of control
T/C (dose: 100.0 mg/kg/injection, schedule: Q01DX009 (ip), vehicle: saline with Tween-80): 87 % of control

C[C@]12C=CC(=O)C=C1CC[C@@H]1[C@@H]2C(=O)C[C@@]2(C)[C@H]1CC[C@]2(O)C(=O)CO
T/C (dose: 12.5 mg/kg/injection, schedule: Q01DX009 (sc), vehicle: steriod suspending solution): 102 % of control
T/C (dose: 25.0 mg/kg/injection, schedule: Q01DX009 (sc), vehicle: steriod suspending solution): 102 % of control
T/C (dose: 50.0 mg/kg/injection, schedule: Q01DX009 (sc), vehicle: steriod suspending solution): 89 % of control and 102 % of control and 110 % of control
T/C (dose: 50.0 mg/kg/injection, schedule: Q01DX017 (sc), vehicle: steriod suspending solution): 104 % of control
T/C (dose: 50.0 mg/kg/injection, schedule: Q## X009 (sc), vehicle: steriod suspending solution): 102 % of control
T/C (dose: 100.0 mg/kg/injection, schedule: Q01DX001 (sc), vehicle: steriod suspending solution): 100 % of control
T/C (dose: 100.0 mg/kg/injection, schedule: Q01DX009 (sc), vehicle: steriod suspending solution): 109 % of control
T/C (dose: 100.0 mg/kg/injection, schedule: Q01DX017 (sc), vehicle: steriod suspending solution): 97 % of control
T/C (dose: 100.0 mg/kg/injection, schedule: Q04DX003 (sc), vehicle: steriod suspending solution): 109 % of control
T/C (dose: 100.0 mg/kg/injection, schedule: Q04DX005 (sc), vehicle: steriod suspending solution): 97 % of control
T/C (dose: 100.0 mg/kg/injection, schedule: Q## X009 (sc), vehicle: steriod suspending solution): 118 % of control
T/C (dose: 200.0 mg/kg/injection, schedule: Q01DX001 (sc), vehicle: steriod suspending solution): 95 % of control
T/C (dose: 200.0 mg/kg/injection, schedule: Q01DX009 (sc), vehicle: steriod suspending solution): 123 % of control
T/C (dose: 200.0 mg/kg/injection, schedule: Q04DX003 (sc), vehicle: steriod suspending solution): 104 % of control
T/C (dose: 200.0 mg/kg/injection, schedule: Q04DX005 (sc), vehicle: steriod suspending solution): 106 % of control
T/C (dose: 200.0 mg/kg/injection, schedule: Q## X009 (sc), vehicle: steriod suspending solution): 106 % of control
T/C (dose: 400.0 mg/kg/injection, schedule: Q01DX001 (sc), vehicle: steriod suspending solution): 95 % of control
T/C (dose: 400.0 mg/kg/injection, schedule: Q04DX003 (sc), vehicle: steriod suspending solution): 106 % of control
T/C (dose: 400.0 mg/kg/injection, schedule: Q04DX005 (sc), vehicle: steriod suspending solution): 109 % of control
T/C (dose: 400.0 mg/kg/injection, schedule: Q## X009 (sc), vehicle: steriod suspending solution): 106 % of control
T/C (dose: 800.0 mg/kg/injection, schedule: Q01DX001 (sc), vehicle: steriod suspending solution): 93 % of control

CCN(CC)CCCC(C)Nc1ccnc(/C=C/c2ccc(Cl)cc2)c1 (stereo not drawn)
T/C [6]: 86 % of control
T/C (dose: 18.75 mg/kg/injection, schedule: Q04DX003 (ip), vehicle: saline): 86 % of control
T/C [7]: 92 % of control
T/C (dose: 37.5 mg/kg/injection, schedule: Q04DX003 (ip), vehicle: saline): 93 % of control
T/C (dose: 75.0 mg/kg/injection, schedule: Q04DX003 (ip), vehicle: saline): 89 % of control

Cc1ccc(NCC2(/N=C/c3ccccc3)OC(CO)C(O)C2O)cc1 (stereo not drawn)
T/C [8]: 98 % of control
T/C [6]: 109 % of control
T/C [7]: 91 % of control and 95 % of control
T/C [9]: 90 % of control and 92 % of control
T/C [10]: 93 % of control and 114 % of control
T/C (dose: 177.0 mg/kg/injection, schedule: Q01DX009 (ip), vehicle: Klucel (hydroxypropylcellulose) (HPC)): 123 % of control
T/C [11]: 104 % of control
T/C (dose: 266.0 mg/kg/injection, schedule: Q01DX009 (ip), vehicle: Klucel (hydroxypropylcellulose) (HPC)): 123 % of control
T/C [12]: 109 % of control

COc1cccc2c1C(=N)c1c(O)c3c(c(O)c1C2=O)C[C@@](O)(C(C)=O)C[C@@H]3OC1CC(N)C(O)C(C)O1 (stereo partly drawn)
T/C (dose: 1.0 mg/kg/injection, schedule: Q01DX009 (ip), vehicle: water): 177 % of control
T/C (dose: 1.56 mg/kg/injection, schedule: Q01DX001 (ip), vehicle: water): 163 % of control
T/C (dose: 2.0 mg/kg/injection, schedule: Q01DX009 (ip), vehicle: water): 205 % of control
T/C (dose: 3.13 mg/kg/injection, schedule: Q01DX001 (ip), vehicle: water): 159 % of control
T/C (dose: 4.0 mg/kg/injection, schedule: Q01DX009 (ip), vehicle: water): 201 % of control
T/C (dose: 6.25 mg/kg/injection, schedule: Q01DX001 (ip), vehicle: water): 166 % of control and 168 % of control and 185 % of control
T/C (dose: 12.0 mg/kg/injection, schedule: Q01DX001 (ip), vehicle: water): 94 % of control
T/C (dose: 12.5 mg/kg/injection, schedule: Q01DX001 (ip), vehicle: water): 164 % of control and 201 % of control
T/C (dose: 20.0 mg/kg/injection, schedule: Q01DX001 (ip), vehicle: water): 95 % of control

Cc1nc(N)[nH]c(=O)c1Br
T/C (dose: 100.0 mg/kg/injection, schedule: Q04DX003 (ip), vehicle: Klucel (hydroxypropylcellulose) (HPC)): 97 % of control
T/C (dose: 200.0 mg/kg/injection, schedule: Q04DX003 (ip), vehicle: Klucel (hydroxypropylcellulose) (HPC)): 93 % of control
T/C (dose: 400.0 mg/kg/injection, schedule: Q04DX003 (ip), vehicle: Klucel (hydroxypropylcellulose) (HPC)): 89 % of control

CCOc1ccccc1NC(=O)Nc1ccc(Cl)cc1
T/C [10]: 110 % of control
T/C [11]: 103 % of control
T/C [12]: 100 % of control

CCC1(O)CC2CN(CCc3c([nH]c4ccccc34)C(C(=O)OC)(c3cc4c(cc3OC)N(C)C3C(O)(C(=O)NCCSSCCNC(=O)C5(O)C(O)C6(CC)C=CCN7CCC8(c9cc(C%10(C(=O)OC)CC%11CN(CCc%12c%10[nH]c%10ccccc%12%10)CC(O)(CC)C%11)c(OC)cc9N(C)C58)C76)C(O)C5(CC)C=CCN6CCC43C65)C2)C1 (stereo not drawn)
T/C (dose: 0.13 mg/kg/injection, schedule: Q04DX003 (ip), vehicle: saline): 122 % of control
T/C (dose: 0.64 mg/kg/injection, schedule: Q01DX009 (ip), vehicle: saline): 184 % of control
T/C (dose: 1.0 mg/kg/injection, schedule: Q04DX003 (ip), vehicle: saline): 151 % of control
T/C (dose: 1.08 mg/kg/injection, schedule: Q01DX009 (ip), vehicle: saline): 189 % of control
T/C (dose: 648.0 micrograms/kg/injection, schedule: Q04DX003 (ip), vehicle: saline): 158 % of control and 181 % of control
T/C (dose: 1080.0 micrograms/kg/injection, schedule: Q04DX003 (ip), vehicle: saline): 183 % of control and 203 % of control
T/C (dose: 1800.0 micrograms/kg/injection, schedule: Q04DX003 (ip), vehicle: saline): 184 % of control and 203 % of control

CC(=O)[O][Pb]([O]C(C)=O)([c]1ccccc1)[c]1ccccc1
T/C [8]: 98 % of control
T/C [6]: 99 % of control
T/C [7]: 103 % of control
T/C [9]: 95 % of control

O=C(NCCCN1CC1)C(=O)NCCCN1CC1
T/C [1]: 165 % of control
T/C [2]: 194 % of control
T/C [3]: 96 % of control
